Assays:
[1] = tested on: human lung cancer cells (A549); test: Nude mouse xenograft model of human lung cancer cells, oral administration; type: in vivo; design: Tumor size increase (Vt—V0): unit not given here
Procedure: (§1) Anticancer activity against lung cancer according to the oral administration of Tr-9 was confirmed through a nude mouse xenograft model of human lung cancer cells (A549). Specific pathogen-free (SPF) nude mice of the BALB/C strain were used as the animal model. Animals were bred in the animal room of Daedeok Campus of Hannam University maintained at a temperature of 23±3° C., relative humidity of 55±15%, ventilation frequency of 10-20 times/hr, lighting time of 12 hours(lights on at 8 am and off at 8 pm) and illuminance of 150 to 300 Lux.
(§2) For cancer cell transplantation, all cells were collected and counted on the last day of culture, and the concentration of human lung cancer cell line A549 was adjusted to 5×10^6 cells/ml using PBS. The adjusted cell culture solution was injected subcutaneously into the auxiliary region between the right scapula and chest wall at 0.2 ml (1×10^6 cells/mouse) per mouse.
(§3) The Tr-9 was dissolved in sterile PBS and 1 mM Tr-9 200 µℓ was orally administered per mouse once a day, and all animals were weighed immediately before the start of drug (Tr-9) administration and 10 times in total from day 2 to day 23 after cancer cell transplantation (Table 1).
(§4) In Table 1 above, data values are the mean ± standard deviation. After measuring the body weight, the animals were killed using CO2 gas, and the tumor was separated and the size was measured in 3 directions using a vernier caliper for each animal. Then, the change in tumor size was expressed as a calculated value of (length × width × height)/2 (Table 2).
Tumor size increase is (Δt)= Vt—Vo, wherein Vt is the value of measuring the tumor size by date, and Vo is the value of measuring the initial tumor size.

[2] = Change in mouse weight, A549 xenograft, oral administration; type: in vivo, nude mouse; design: Change in mouse weight: unit not given here; settings: once a day
Procedure: as §3, §4

[3] = Change in mouse weight, HCT116 xenograft, intraperitoneal administration; type: in vivo, nude mouse; design: Change in mouse weight: unit not given here; settings: intraperitoneal once a day
Procedure: (§5) The Tr-9 was dissolved in sterile PBS and 1 mM Tr-9 200 µℓ was intraperitoneally administered per mouse once a day, and all animals were weighed immediately before the start of drug (Tr-9) administration and 9 times in total from day 2 to day 21 after cancer cell transplantation (Table 7).
as §4, with “7” for “1”, “8).” for “2).”

[4] = tested on: human colorectal cancer cells (HCT116); test: Nude mouse xenograft model of human colorectal cancer cells, intraperitoneal administration; type: in vivo
Procedure: Anticancer activity against colorectal cancer according to the intraperitoneal administration of Tr-9 was confirmed through a nude mouse xenograft model of human colorectal cancer cells (HCT116). In Example 5, Example 4 was repeated except for using colorectal cancer cells.
as §1, with “Specific” for “Anticancer activity against lung cancer according to the oral administration of Tr-9 was confirmed through a nude mouse xenograft model of human lung cancer cells (A549). Specific”
as §2, with “colorectal” for “lung”, “HCT116” for “A549”
as §5
as §4, with “7” for “1”, “8).” for “2).”
Tumor size increase is (Δt)═ Vt—Vo, wherein Vt is the value of measuring the tumor size by date, and Vo is the value of measuring the initial tumor size.

[5] = intraperitoneal once a day, Day 21

## C/C=C(/C)C(=O)O[C@@H]1C[C@H](C)[C@H]2CC(=O)C(C)=C2C[C@@H]1C(C)(C)OC(C)=O [Torilin, torilin, reference compound]
[1]; oral once a day, Day 0
  Tumor size increase (Vt—V0): 0.0±0.0
[1]; oral once a day, Day 2
  Tumor size increase (Vt—V0): 11.4±11.7
[1]; oral once a day, Day 2, vs control
  Inhibition rate (tumor size increase): 5.8%
[1]; oral once a day, Day 5
  Tumor size increase (Vt—V0): 18.1±9.4
[1]; oral once a day, Day 5, vs control
  Inhibition rate (tumor size increase): 10.8%
[1]; oral once a day, Day 7
  Tumor size increase (Vt—V0): 28.6±3.0
[1]; oral once a day, Day 7, vs control
  Inhibition rate (tumor size increase): 11.7%
[1]; oral once a day, Day 9
  Tumor size increase (Vt—V0): 42.0±9.8
[1]; oral once a day, Day 9, vs control
  Inhibition rate (tumor size increase): 20.9%
[1]; oral once a day, Day 12, vs control
  Inhibition rate (tumor size increase): 27.0%
[1]; oral once a day, Day 14
  Tumor size increase (Vt—V0): 134.6±37.6
[1]; oral once a day, Day 14, vs control
  Inhibition rate (tumor size increase): 26.0%
[1]; oral once a day, Day 16
  Tumor size increase (Vt—V0): 211.8±32.9
[1]; oral once a day, Day 16, vs control
  Inhibition rate (tumor size increase): 27.0%
[1]; oral once a day, Day 19
  Tumor size increase (Vt—V0): 362.2±64.2
[1]; oral once a day, Day 19, vs control
  Inhibition rate (tumor size increase): 31.5%
[1]; oral once a day, Day 21
  Tumor size increase (Vt—V0): 493.4±82.6
[1]; oral once a day, Day 21, vs control
  Inhibition rate (tumor size increase): 33.0%
[1]; oral once a day, Day 23
  Tumor size increase (Vt—V0): 646.9±108.8
  Tumor weight at Day 23: 0.745 ± 0.196 g
  Tumor weight reduction rate compared to control group: 29.5%
[1]; oral once a day, Day 23, vs control
  Inhibition rate (tumor size increase): 34.1%
[1]; oral, after day 19
  tumor size compared to the control group: statistically significantly smaller
[2]; 0 Day after drug treatment
  Change in mouse weight: 100.0 ±0.0
[2]; 2 Days after drug treatment
  Change in mouse weight: 100.0 ±3.0
[2]; 5 Days after drug treatment
  Change in mouse weight: 97.2 ±2.5
[2]; 7 Days after drug treatment
  Change in mouse weight: 99.5 ±3.5
[2]; 9 Days after drug treatment
  Change in mouse weight: 105.7 ±7.0
[2]; 12 Days after drug treatment
  Change in mouse weight: 101.0 ±6.2
[2]; 14 Days after drug treatment
  Change in mouse weight: 101.8 ±5.5
[2]; 16 Days after drug treatment
  Change in mouse weight: 103.9 ±5.8
[2]; 19 Days after drug treatment
  Change in mouse weight: 101.1 ±5.8
[2]; 21 Days after drug treatment
  Change in mouse weight: 102.9 ±6.0
[2]; 23 Days after drug treatment
  Change in mouse weight: 105.0 ±7.1
[2]; day 2 to day 23
  difference in body weight according to the administration of the drugs: almost no difference in body weight
[3]; 0 Day after drug treatment
  Change in mouse weight: 100.0 ±0.0
[3]; 2 Days after drug treatment
  Change in mouse weight: 100.5 ±1.8
[3]; 5 Days after drug treatment
  Change in mouse weight: 101.4 ±2.7
[3]; 7 Days after drug treatment
  Change in mouse weight: 98.4 ±2.7
[3]; 9 Days after drug treatment
  Change in mouse weight: 98.4 ±2.8
[3]; 11 Days after drug treatment
  Change in mouse weight: 98.8 ±3.2
[3]; 14 Days after drug treatment
  Change in mouse weight: 98.2 ±4.3
[3]; 16 Days after drug treatment
  Change in mouse weight: 98.6 ±4.9
[3]; 18 Days after drug treatment
  Change in mouse weight: 100.0 ±5.3
[3]; 21 Days after drug treatment
  Change in mouse weight: 101.8 ±7.3
[3]; day 2 to day 21
  difference in body weight according to the administration of the drugs: almost no difference in body weight
[4]; intraperitoneal once a day, Day 0, table title: Change in tumor size
  Tumor size increase (Vt−V0): 0.0±0.0
[4]; intraperitoneal once a day, Day 2, table title: Change in tumor size
  Tumor size increase (Vt−V0): 54.7±16.2
[4]; intraperitoneal once a day, Day 2, vs control
  Inhibition rate (tumor size increase): 17.4%
[4]; intraperitoneal once a day, Day 5, table title: Change in tumor size
  Tumor size increase (Vt−V0): 151.4±33.3
[4]; intraperitoneal once a day, Day 5, vs control
  Inhibition rate (tumor size increase): 16.3%
[4]; intraperitoneal once a day, Day 7, table title: Change in tumor size
  Tumor size increase (Vt−V0): 362.7±59.4
[4]; intraperitoneal once a day, Day 7, vs control
  Inhibition rate (tumor size increase): 18.9%
[4]; intraperitoneal once a day, Day 9, table title: Change in tumor size
  Tumor size increase (Vt−V0): 565.9±142.4
[4]; intraperitoneal once a day, Day 9, vs control
  Inhibition rate (tumor size increase): 19.1%
[4]; intraperitoneal once a day, Day 11, table title: Change in tumor size
  Tumor size increase (Vt−V0): 816.9±248.1
[4]; intraperitoneal once a day, Day 11, vs control
  Inhibition rate (tumor size increase): 20.6%
[4]; intraperitoneal once a day, Day 14, table title: Change in tumor size
  Tumor size increase (Vt−V0): 1086.2±458.4
[4]; intraperitoneal once a day, Day 14, vs control
  Inhibition rate (tumor size increase): 21.2%
[4]; intraperitoneal once a day, Day 16, table title: Change in tumor size
  Tumor size increase (Vt−V0): 1319.9±614.0
[4]; intraperitoneal once a day, Day 16, vs control
  Inhibition rate (tumor size increase): 26.5%
[4]; intraperitoneal once a day, Day 18, table title: Change in tumor size
  Tumor size increase (Vt−V0): 1555.6±640.5
[4]; intraperitoneal once a day, Day 18, vs control
  Inhibition rate (tumor size increase): 24.0%
[4]; [5]
  Tumor weight at Day 21: 2.85 ± 0.834 g
  Tumor weight reduction rate compared to control group: 25.9%
[4]; intraperitoneal once a day, Day 21, table title: Change in tumor size
  Tumor size increase (Vt−V0): 1973.3±821.1
[4]; intraperitoneal once a day, Day 21, vs control
  Inhibition rate (tumor size increase): 25.2%
[4]; intraperitoneal, after day 14
  tumor size compared to the control group: statistically significantly smaller

Reference: patent publication US20230107983A1, “COMPOUND ISOLATED FROM TORILIDIS FRUCTUS, AND ANTICANCER PHARMACEUTICAL COMPOSITION CONTAINING SAME AS ACTIVE INGREDIENT” (PHARMA-GENE CO., LTD., priority 2020, published 2023)
